Measurements: US8835377B2, “Oral delivery of peptide pharmaceutical compositions” (UGP Therapeutics, Inc., priority 2004, dated 2014)

Assay: Pharmacokinetics after oral capsules (sCT plus Dmt-DALDA with citric acid and lauroyl carnitine), non-enteric coated or enteric coated, in fasted beagle dogs (plasma; ELISA for sCT, HPLC-MS for Dmt-DALDA)
Type: in vivo
Experimental: A second series of tests was carried out, as noted above, using beagle dogs. […] In the experiments represented in FIGS. 2A and 2B, size 00 […] capsules were each filled with 758 mg of a powdered blend consisting of citric acid (643 mg), lauroyl carnitine (66 mg), talc (33 mg), salmon calcitonin (sCT) (13 mg) and Dmt-DALDA (2.4 mg). Half of the capsules were coated with an enteric coating solution of L30D-55, while the remaining 50% of the capsules were not coated. Four fasted dogs were each given 1 uncoated capsule, and 2 weeks later they were each given an enteric coated capsule. After administration of each capsule, samples of blood were taken at 15 minute intervals from an indwelling catheter for up to 4 hours. The blood samples were centrifuged and the resulting plasma supernatants were stored frozen at −20° C. The plasma samples were subsequently analyzed for sCT by a direct ELISA, and for Dmt-DALDA by HPLC-mass spectrometry performed as set forth in Wan, H. and Desiderio, D., Quantitation of [DMT^1] DALDA in ovine plasma by on-line liquid chromatography/quadrapole time-of-flight mass spectrometry, Rapid Communications in Mass Spectrometry, 2003; 17, 538-546, the contents of which are incorporated herein by reference.
The results summarized in FIGS. 2A and 2B as plasma peptide concentration normalized to a 1 mg dose as a function of time relative to the average Tmax, (i.e., the time at which the maximum amount of peptide was detected) indicate that both peptides, i.e., sCT and Dmt-DALDA, were detected in dogs given uncoated or enteric coated capsules. […] Table DI (below) sets forth the values upon which the curves in FIGS. 2A and 2B are based. The results are summarized in the tables as plasma peptide concentration normalized to a 1 mg dose as a function of time. Table III, moreover, provides the standard deviations for the data obtained regarding each of the test dogs, which standard deviations are also indicated in FIGS. 2A and 2B.
Table IV (below) summarizes the pharmacokinetic parameters in dogs of orally administered sCT and Dmt-DALDA when administered in non-enteric coated versus enteric coated capsules. Peptide was not detected from 1 dog in each group due to (a) Dog 3 vomiting the uncoated capsule and (b) delayed gastric emptying in Dog 2 provided with an enteric coated capsule. Cmax and AUC are as defined with regard to Table H above.

CC(C)C[C@H](NC(=O)[C@H](CCCCN)NC(=O)CNC(=O)[C@H](CC(C)C)NC(=O)[C@@H](NC(=O)[C@@H]1CSSC[C@H](N)C(=O)N[C@@H](CO)C(=O)N[C@@H](CC(N)=O)C(=O)N[C@@H](CC(C)C)C(=O)N[C@@H](CO)C(=O)N[C@@H]([C@@H](C)O)C(=O)N1)C(C)C)C(=O)N[C@@H](CO)C(=O)N[C@@H](CCC(N)=O)C(=O)N[C@@H](CCC(=O)O)C(=O)N[C@@H](CC(C)C)C(=O)N[C@@H](Cc1c[nH]cn1)C(=O)N[C@@H](CCCCN)C(=O)N[C@@H](CC(C)C)C(=O)N[C@@H](CCC(N)=O)C(=O)N[C@H](C(=O)N[C@@H](Cc1ccc(O)cc1)C(=O)N1CCC[C@H]1C(=O)N[C@@H](CCCNC(=N)N)C(=O)N[C@H](C(=O)N[C@@H](CC(N)=O)C(=O)N[C@H](C(=O)NCC(=O)N[C@@H](CO)C(=O)NCC(=O)N[C@H](C(=O)N1CCC[C@H]1C(N)=O)[C@@H](C)O)[C@@H](C)O)[C@@H](C)O)[C@@H](C)O [sCT, salmon calcitonin]
plasma peptide concentration normalized to a 1 mg dose (enteric coated capsule, Dog 3, 75 min): 0 pg/mL
plasma peptide concentration normalized to a 1 mg dose (enteric coated capsule, Dog 3, 90 min): 0 pg/mL
plasma peptide concentration normalized to a 1 mg dose (enteric coated capsule, Dog 3, 105 min): 0 pg/mL
plasma peptide concentration normalized to a 1 mg dose (enteric coated capsule, Dog 3, 120 min): 0 pg/mL
plasma peptide concentration normalized to a 1 mg dose (enteric coated capsule, Dog 3, 135 min): 13219 pg/mL
plasma peptide concentration normalized to a 1 mg dose (enteric coated capsule, Dog 3, 150 min): 10151 pg/mL
plasma peptide concentration normalized to a 1 mg dose (enteric coated capsule, Dog 3, 165 min): 4410 pg/mL
plasma peptide concentration normalized to a 1 mg dose (enteric coated capsule, Dog 3, 180 min): 2983 pg/mL
plasma peptide concentration normalized to a 1 mg dose (enteric coated capsule, Dog 3, 195 min): 1825 pg/mL
plasma peptide concentration normalized to a 1 mg dose (enteric coated capsule, Dog 4, 0 min): 0 pg/mL
plasma peptide concentration normalized to a 1 mg dose (enteric coated capsule, Dog 4, 15 min): 0 pg/mL
plasma peptide concentration normalized to a 1 mg dose (enteric coated capsule, Dog 4, 30 min): 0 pg/mL
plasma peptide concentration normalized to a 1 mg dose (enteric coated capsule, Dog 4, 45 min): 0 pg/mL
plasma peptide concentration normalized to a 1 mg dose (enteric coated capsule, Dog 4, 60 min): 0 pg/mL
plasma peptide concentration normalized to a 1 mg dose (enteric coated capsule, Dog 4, 75 min): 0 pg/mL
plasma peptide concentration normalized to a 1 mg dose (enteric coated capsule, Dog 4, 90 min): 0 pg/mL
plasma peptide concentration normalized to a 1 mg dose (enteric coated capsule, Dog 4, 105 min): 13111 pg/mL
plasma peptide concentration normalized to a 1 mg dose (enteric coated capsule, Dog 4, 120 min): 13147 pg/mL
plasma peptide concentration normalized to a 1 mg dose (enteric coated capsule, Dog 4, 135 min): 6841 pg/mL
plasma peptide concentration normalized to a 1 mg dose (enteric coated capsule, Dog 4, 150 min): 4251 pg/mL
plasma peptide concentration normalized to a 1 mg dose (enteric coated capsule, Dog 4, 165 min): 2448 pg/mL
plasma peptide concentration normalized to a 1 mg dose (enteric coated capsule, Dog 4, 180 min): 1468 pg/mL
plasma peptide concentration normalized to a 1 mg dose (enteric coated capsule, Dog 4, 195 min): 1192 pg/mL
plasma peptide concentration normalized to a 1 mg dose (non-enteric coated capsule, Dog 1, 45 min): 1343 pg/mL
plasma peptide concentration normalized to a 1 mg dose (non-enteric coated capsule, Dog 1, 60 min): 561 pg/mL
plasma peptide concentration normalized to a 1 mg dose (non-enteric coated capsule, Dog 1, 75 min): 273 pg/mL
plasma peptide concentration normalized to a 1 mg dose (non-enteric coated capsule, Dog 1, 90 min): 140 pg/mL
plasma peptide concentration normalized to a 1 mg dose (non-enteric coated capsule, Dog 1, 105 min): 121 pg/mL
plasma peptide concentration normalized to a 1 mg dose (non-enteric coated capsule, Dog 1, 120 min): 89 pg/mL
plasma peptide concentration normalized to a 1 mg dose (non-enteric coated capsule, Dog 1, 135 min): 51 pg/mL
plasma peptide concentration normalized to a 1 mg dose (non-enteric coated capsule, Dog 1, 150 min): 31 pg/mL
plasma peptide concentration normalized to a 1 mg dose (non-enteric coated capsule, Dog 1, 165 min): 23 pg/mL
plasma peptide concentration normalized to a 1 mg dose (non-enteric coated capsule, Dog 1, 180 min): 16 pg/mL
plasma peptide concentration normalized to a 1 mg dose (non-enteric coated capsule, Dog 1, 195 min): 11 pg/mL
plasma peptide concentration normalized to a 1 mg dose (non-enteric coated capsule, Dog 1, 210 min): 0 pg/mL
plasma peptide concentration normalized to a 1 mg dose (non-enteric coated capsule, Dog 1, 225 min): 0 pg/mL
plasma peptide concentration normalized to a 1 mg dose (non-enteric coated capsule, Dog 1, 240 min): 0 pg/mL
plasma peptide concentration normalized to a 1 mg dose (non-enteric coated capsule, Dog 2, 45 min): 2151 pg/mL
plasma peptide concentration normalized to a 1 mg dose (non-enteric coated capsule, Dog 2, 60 min): 897 pg/mL
plasma peptide concentration normalized to a 1 mg dose (non-enteric coated capsule, Dog 2, 75 min): 229 pg/mL
plasma peptide concentration normalized to a 1 mg dose (non-enteric coated capsule, Dog 2, 90 min): 182 pg/mL
plasma peptide concentration normalized to a 1 mg dose (non-enteric coated capsule, Dog 2, 105 min): 122 pg/mL
plasma peptide concentration normalized to a 1 mg dose (non-enteric coated capsule, Dog 2, 120 min): 69 pg/mL
plasma peptide concentration normalized to a 1 mg dose (non-enteric coated capsule, Dog 2, 135 min): 44 pg/mL
plasma peptide concentration normalized to a 1 mg dose (non-enteric coated capsule, Dog 2, 150 min): 39 pg/mL
plasma peptide concentration normalized to a 1 mg dose (non-enteric coated capsule, Dog 2, 165 min): 22 pg/mL
plasma peptide concentration normalized to a 1 mg dose (non-enteric coated capsule, Dog 2, 180 min): 15 pg/mL
plasma peptide concentration normalized to a 1 mg dose (non-enteric coated capsule, Dog 2, 195 min): 0 pg/mL
plasma peptide concentration normalized to a 1 mg dose (non-enteric coated capsule, Dog 2, 210 min): 0 pg/mL
plasma peptide concentration normalized to a 1 mg dose (non-enteric coated capsule, Dog 2, 225 min): 0 pg/mL
plasma peptide concentration normalized to a 1 mg dose (non-enteric coated capsule, Dog 2, 240 min): 0 pg/mL
plasma peptide concentration normalized to a 1 mg dose (non-enteric coated capsule, Dog 4, 45 min): 278 pg/mL
plasma peptide concentration normalized to a 1 mg dose (non-enteric coated capsule, Dog 4, 60 min): 163 pg/mL
plasma peptide concentration normalized to a 1 mg dose (non-enteric coated capsule, Dog 4, 75 min): 101 pg/mL
plasma peptide concentration normalized to a 1 mg dose (non-enteric coated capsule, Dog 4, 90 min): 69 pg/mL
plasma peptide concentration normalized to a 1 mg dose (non-enteric coated capsule, Dog 4, 105 min): 45 pg/mL
plasma peptide concentration normalized to a 1 mg dose (non-enteric coated capsule, Dog 4, 120 min): 26 pg/mL
plasma peptide concentration normalized to a 1 mg dose (non-enteric coated capsule, Dog 4, 135 min): 16 pg/mL
plasma peptide concentration normalized to a 1 mg dose (non-enteric coated capsule, Dog 4, 150 min): 12 pg/mL
plasma peptide concentration normalized to a 1 mg dose (non-enteric coated capsule, Dog 4, 165 min): 0 pg/mL
plasma peptide concentration normalized to a 1 mg dose (non-enteric coated capsule, Dog 4, 180 min): 0 pg/mL
plasma peptide concentration normalized to a 1 mg dose (non-enteric coated capsule, Dog 4, 195 min): 0 pg/mL
plasma peptide concentration normalized to a 1 mg dose (non-enteric coated capsule, Dog 4, 210 min): 0 pg/mL
plasma peptide concentration normalized to a 1 mg dose (non-enteric coated capsule, Dog 4, 225 min): 0 pg/mL
plasma peptide concentration normalized to a 1 mg dose (non-enteric coated capsule, Dog 4, 240 min): 0 pg/mL
